Data: patent publication US11028086B2, “Pyrido-imidazo rifamycins” (Biofer S.p.A., priority 2017, dated 2021)
≈ marks a conversion by molar mass, not a printed value.

Tests used:
Format in all cases: cell-based
[1] = test system: Staphylococcus aureus IM149; test: MIC by serial dilution, Strain A; settings: for MIC: range between last concentration with growth and first without growth
Method: (§1) The MICs were calculated using the serial dilution method, and are expressed as the range between the last concentration at which the bacterial strain grows and the first concentration at which the strain tested no longer grows.

[2] = test system: Escherichia Coli NK12; test: MIC by serial dilution, Strain D; settings: COLINK12, range between last concentration with growth and first without growth
Method: as §1

[3] = test system: Bacillus Subtilis ATCC 6633; test: MIC by serial dilution, Strain B; settings: ATCC6633, range between last concentration with growth and first without growth
Method: as §1

[4] = test system: Escherichia Coli ATCC 25922; test: MIC by serial dilution, Strain C; settings: ATCC25922, range between last concentration with growth and first without growth
Method: as §1

[5] = test system: Gram-positive and Gram-negative strains; test: Antibacterial activity, overall statements on the MIC test
Method: as §1

Structure (SMILES) | MIC [1] | MIC [2] | MIC [3] | MIC [4] | MIC against strain A compared with RFX [1] | antibacterial activity (in words) [5]
CO[C@H]1/C=C/O[C@@]2(C)Oc3c(C)c(O)c4c(O)c(c5c(nc6cc(CO)ccn65)c4c3C2=O)NC(=O)/C(C)=C\C=C\[C@H](C)[C@H](O)[C@@H](C)[C@@H](O)[C@@H](C)[C@H](OC(C)=O)[C@@H]1C [Example 1, 4′-methylol-4-desoxypyrido[1′,2′-1,2]imidazo[5,4-c]rifamycin SV] | 8 to 16 µg/mL (≈ 9.98 to 20 µM) | 4 to 8 µg/mL (≈ 4.99 to 9.98 µM) | 2 to 4 µg/mL (≈ 2.49 to 4.99 µM) | 8 to 16 µg/mL (≈ 9.98 to 20 µM) | – | –
CO[C@H]1/C=C/O[C@@]2(C)Oc3c(C)c(O)c4c(O)c(c5c(nc6cc(C=O)ccn65)c4c3C2=O)NC(=O)/C(C)=C\C=C\[C@H](C)[C@H](O)[C@@H](C)[C@@H](O)[C@@H](C)[C@H](OC(C)=O)[C@@H]1C [Example 2, 4′-formyl-4-desoxypyrido[1′,2′-1,2]imidazo[5,4-c]rifamycin SV] | > 64 µg/mL | > 64 µg/mL | > 64 µg/mL | > 64 µg/mL | – | –
CO[C@H]1/C=C/O[C@@]2(C)Oc3c(C)c(O)c4c(O)c(c5c(nc6cc(/C=N/N7CCCCC7)ccn65)c4c3C2=O)NC(=O)/C(C)=C\C=C\[C@H](C)[C@H](O)[C@@H](C)[C@@H](O)[C@@H](C)[C@H](OC(C)=O)[C@@H]1C [Example 4, 4′-[(1-piperidinyl)iminomethyl]-4-desoxypyrido[1′,2′-1,2]imidazo[5,4-c]rifamycin SV] | 0.03 to 0.06 µg/mL (≈ 0.034 to 0.068 µM) | 8 to 16 µg/mL (≈ 9.07 to 18.1 µM) | 0.062 to 0.125 µg/mL (≈ 0.0703 to 0.142 µM) | 4 to 8 µg/mL (≈ 4.54 to 9.07 µM) | – | –
CO[C@H]1/C=C/O[C@@]2(C)Oc3c(C)c(O)c4c(O)c(c5c(nc6cc(/C=N/N(C)C)ccn65)c4c3C2=O)NC(=O)/C(C)=C\C=C\[C@H](C)[C@H](O)[C@@H](C)[C@@H](O)[C@@H](C)[C@H](OC(C)=O)[C@@H]1C [Example 5, 4′-[(N,N-dimethylamino)iminomethyl]-4-desoxypyrido[1′,2′-1,2]imidazo[5,4-c]rifamycin SV] | 0.03 to 0.06 µg/mL (≈ 0.0356 to 0.0713 µM) | 32 to 64 µg/mL (≈ 38 to 76 µM) | 0.062 to 0.125 µg/mL (≈ 0.0736 to 0.148 µM) | 32 to 64 µg/mL (≈ 38 to 76 µM) | – | –
CO/N=C/c1ccn2c(c1)nc1c3c4c5c(C)c(O)c3c(O)c(c12)NC(=O)/C(C)=C\C=C\[C@H](C)[C@H](O)[C@@H](C)[C@@H](O)[C@@H](C)[C@H](OC(C)=O)[C@H](C)[C@@H](OC)/C=C/O[C@@](C)(O5)C4=O [Example 13, 4′-(N-methoxy)-iminomethyl-4-desoxypyrido[1′,2′-1,2]imidazo[5,4-c]rifamycin SV] | < 0.015 µg/mL | 8 to 16 µg/mL (≈ 9.65 to 19.3 µM) | < 0.015 µg/mL | 8 to 16 µg/mL (≈ 9.65 to 19.3 µM) | lower than RFX | fully comparable to that of RFX
CO[C@H]1/C=C/O[C@@]2(C)Oc3c(C)c(O)c4c(O)c(c5c(nc6cc(/C=N/C(C)C)ccn65)c4c3C2=O)NC(=O)/C(C)=C\C=C\[C@H](C)[C@H](O)[C@@H](C)[C@@H](O)[C@@H](C)[C@H](OC(C)=O)[C@@H]1C [Example 14] | 0.03 to 0.06 µg/mL (≈ 0.0357 to 0.0713 µM) | 8 to 16 µg/mL (≈ 9.51 to 19 µM) | 8 to 16 µg/mL (≈ 9.51 to 19 µM) | 8 to 16 µg/mL (≈ 9.51 to 19 µM) | lower than RFX | fully comparable to that of RFX
CO[C@H]1/C=C/O[C@@]2(C)Oc3c(C)c(O)c4c(O)c(c5c(nc6cc(/C=N/N7CCOCC7)ccn65)c4c3C2=O)NC(=O)/C(C)=C\C=C\[C@H](C)[C@H](O)[C@@H](C)[C@@H](O)[C@@H](C)[C@H](OC(C)=O)[C@@H]1C [Example 15] | < 0.015 µg/mL | 4 to 8 µg/mL (≈ 4.52 to 9.05 µM) | 8 to 16 µg/mL (≈ 9.05 to 18.1 µM) | 8 to 16 µg/mL (≈ 9.05 to 18.1 µM) | lower than RFX | fully comparable to that of RFX

Now from value to molecule, other results behind:

MIC [1] | MIC [2] | MIC [3] | MIC [4] | Structure (SMILES) | MIC against strain A compared with RFX [1] | antibacterial activity (in words) [5]
> 64 µg/mL | 32 to 64 µg/mL (≈ 34.8 to 69.6 µM) | 8 to 16 µg/mL (≈ 8.71 to 17.4 µM) | > 64 µg/mL | CO[C@H]1/C=C/O[C@@]2(C)Oc3c(C)c(O)c4c(O)c(c5c(nc6cc(/C=N/NC(=O)c7ccncc7)ccn65)c4c3C2=O)NC(=O)/C(C)=C\C=C\[C@H](C)[C@H](O)[C@@H](C)[C@@H](O)[C@@H](C)[C@H](OC(C)=O)[C@@H]1C [Example 6, 4′-[(4-carboxyamidopyridyl)iminomethyl]-4-desoxypyrido[1′,2′-1,2]imidazo[5,4-c]rifamycin SV] | – | –
0.03 to 0.06 µg/mL (≈ 0.0356 to 0.0713 µM) | 32 to 64 µg/mL (≈ 38 to 76 µM) | 0.062 to 0.125 µg/mL (≈ 0.0736 to 0.148 µM) | 32 to 64 µg/mL (≈ 38 to 76 µM) | CO[C@H]1/C=C/O[C@@]2(C)Oc3c(C)c(O)c4c(O)c(c5c(nc6ccc(/C=N/N(C)C)cn65)c4c3C2=O)NC(=O)/C(C)=C\C=C\[C@H](C)[C@H](O)[C@@H](C)[C@@H](O)[C@@H](C)[C@H](OC(C)=O)[C@@H]1C [Example 7, 5′-[(N,N-dimethylamino)iminomethyl]-4-desoxypyrido[1′,2′-1,2]imidazo[5,4-c]rifamycin SV] | – | –
0.03 to 0.06 µg/mL (≈ 0.034 to 0.068 µM) | 8 to 16 µg/mL (≈ 9.07 to 18.1 µM) | 0.062 to 0.125 µg/mL (≈ 0.0703 to 0.142 µM) | 4 to 8 µg/mL (≈ 4.54 to 9.07 µM) | CO[C@H]1/C=C/O[C@@]2(C)Oc3c(C)c(O)c4c(O)c(c5c(nc6ccc(/C=N/N7CCCCC7)cn65)c4c3C2=O)NC(=O)/C(C)=C\C=C\[C@H](C)[C@H](O)[C@@H](C)[C@@H](O)[C@@H](C)[C@H](OC(C)=O)[C@@H]1C [Example 8, 5′-[(1-piperidinyl)iminomethyl]-4-desoxypyrido[1′,2′-1,2]imidazo[5,4-c]rifamycin SV] | – | –
8 to 16 µg/mL (≈ 9.52 to 19 µM) | 32 to 64 µg/mL (≈ 38.1 to 76.2 µM) | 4 to 8 µg/mL (≈ 4.76 to 9.52 µM) | 32 to 64 µg/mL (≈ 38.1 to 76.2 µM) | CO[C@H]1/C=C/O[C@@]2(C)Oc3c(C)c(O)c4c(O)c(c5c(nc6ccc(/C=N/N7CCCCC7)cn65)c4c3C2=O)NC(=O)/C(C)=C\C=C\[C@H](C)[C@H](O)[C@@H](C)[C@@H](O)[C@@H](C)[C@H](O)[C@@H]1C [Example 11, 25-desacetyl-5′-[(1-piperidinyl)iminomethyl]-4-desoxypyrido[1′,2′-1,2]imidazo[5,4-c]rifamycin SV] | – | –
8 to 16 µg/mL (≈ 10 to 20 µM) | > 64 µg/mL | 4 to 8 µg/mL (≈ 5 to 10 µM) | > 64 µg/mL | CO[C@H]1/C=C/O[C@@]2(C)Oc3c(C)c(O)c4c(O)c(c5c(nc6ccc(/C=N/N(C)C)cn65)c4c3C2=O)NC(=O)/C(C)=C\C=C\[C@H](C)[C@H](O)[C@@H](C)[C@@H](O)[C@@H](C)[C@H](O)[C@@H]1C [Example 12, 25-desacetyl-5′-[(N,N-dimethylamino)iminomethyl]-4-desoxypyrido[1′,2′-1,2]imidazo[5,4-c]rifamycin SV] | – | –
